Measured values as given in US12226382B2, “Methods for treating microglial dysfunction” (Washington University, priority 2017, dated 2025).

Experiments:
[1] = compared with phosphocreatine; cited from earlier work
Trem2−/− BMDMs [2] = experiment: ER stress in BMDM (LC3 and phospho-Akt immunoblots); assay type: cell-based, mouse; conditions: Trem2−/− BMDMs compared with WT BMDMs, 10% LCCM
Experimental: (§1) To prepare bone marrow-derived macrophages, femurs and tibias were removed and flushed with PBS. Cells were counted and plated at 2.5×10^6 cells/100 mm petri dish in RPMI supplemented with Glutamax, penicillin/streptomycin, non-essential amino acids, pyruvate, and 10% heat inactivated fetal bovine serum (complete RPMI) and 10% L-cell conditioned medium (LCCM). Cells were cultured for 4-5 days before use. Microglia were prepared as previously described (Wang et al., 2015). Briefly, brains were dissociated by using a Neural Tissue Dissociation Kit (T) (Miltenyi Biotech Cat. Number 130-093-231). Cell suspensions were labeled with anti-mouse CD45 magnetic beads and isolated on LS columns (Miltenyi Biotic). Cells were plated onto poly-L-lysine coated polystyrene plates in complete RPMI supplemented with 20% LCCM and 10 ng/ml human TGF-β. Media was changed on day 3 post plating and cells were used 5-7 days post plating. ATP concentrations were determined with an ATP Determination Kit (Invitrogen).
(§2) BMDM or microglia were lysed in RIPA buffer (50 mM Tris, 150 mM NaCl, 1% SDS, and 1% Triton X100) containing PMSF, leupeptin, activated sodium orthovanidate, apoprotinin, and phosphatase inhibitor cocktail 3 (Sigma Aldrich Cat. Number P0044). Lysates were flash frozen on dry ice and stored at −80° C. until use. Lysates were thawed and 4× LDS running buffer and 10% β-mercaptoethanol were added. […]

[3] = system: Trem-2 deficient macrophages; experiment: Supplementation of Trem2-deficient macrophages with creatine analogs; assay type: cell-based, mouse; conditions: supplemented media
Trem2−/− BMDMs [4] = experiment: Autophagic flux in BMDM with lysosomal inhibitor (LC3 immunoblot); assay type: cell-based, mouse; conditions: bafilomycin for 5 hours prior to harvest
Experimental: as §1, §2

Trem2−/− BMDMs [5] = experiment: Immunoblots for autophagy (LC3, p62) and mTOR signaling in BMDM in limiting CSF1 with rescuing agent; assay type: cell-based, mouse; conditions: Trem2-deficient BMDMs, overnight 0.5% LCCM, 5 mM cyclocreatine
Experimental: as §1, §2

Trem2-deficient BMDMs = experiment: Extracellular acidification rate (ECAR), XF96 Extracellular Flux Analyzer; assay type: cell-based, mouse; conditions: overnight 0.5% LCCM, 10 mM cyclocreatine
Experimental: as §1, with “(Invitrogen). For real-time analysis of extracellular acidification rates (ECAR) macrophages were analyzed using an XF96 Extracellular Flux Analyzer (Agilent Technologies). Cells were incubated overnight in complete RPMI in the indicated concentration of LCCM with or without cyclocreatine (10 mM). […]” for “(Invitrogen).”

creatine kinase = conditions: in vitro and in vivo; cited from earlier work
Trem2−/− 5XFAD mice = experiment: Dietary cyclocreatine in Trem2−/− 5XFAD mice: TEM and confocal microscopy of brain; assay type: in vivo, mouse
Description: (§3) The generation of Trem2^−/− and Trem2^−/− SXFAD mice has been described previously (Oakley et al., 2006; Turnbull et al., 2006; Wang et al., 2015). All mice were on a C57BL/6 background. Age and sex matched mice were used for all experiments; experimental cohorts of mice were cohoused from birth to control for the microbiota. For in vivo cyclocreatine treatment 10-week old mice were put on cyclocreatine-containing water, treatment was continued until mice reached 8 months of age (Santa Cruz SC-217964 S). Desired intake of cyclocreatine was approximately 0.28 mg/g of body weight/day, which is approximately the same as the standard creatine dose used in humans of 285 mg/kg of body weight/day (Kurosawa et al., 2012). Cyclocreatine was administered in drinking water at a final concentration of 2.33 mg/ml. The Institutional Animal Care and Use Committee at Washington University in St. Louis approved all protocols used in this study.
For quantitation of multivesicular/multilamellar structures, 30 cells that were cross-sectioned through the nucleus (indicating cross-section through the middle of cell) were randomly chosen, and images of each cell were taken at 6,000× and 20,000× magnification. The cross-sectional area of each of the multivesicular structures were determined using Image J 1.38 g (National Institutes of Health, USA, customized for AMT images). Data is expressed as the 1) total number of a multivesicular/multilammelar structures per cross-sectional area of cytosol and 2) the total cross-sectional area of multivesicular/multilamellar structures per area of cytosol.
Confocal microscopy analysis was performed as previously described (Wang et al., 2015). Briefly, mice were anesthetized with ketamine/xylazine and perfused with ice-cold PBS containing 1 U/ml of heparin. Brains were fixed in 4% PFA overnight at 4° C. rinsed in PBS and incubated overnight at 4° C. in 30% sucrose before freezing in a 2:1 mixture of 30% sucrose and optimal cutting temperature compound. Serial 40 μm coronal sections were cut on a cryo-sliding microtome. Floating sections from 1.1 mm Bregma to 0.8 mm Bregma for cortical imaging or slides with fixed human sections were stained with lba-1 (Waco Chemicals Cat. Number 019-19741) overnight at 4° C. followed by staining with anti-rabbit IgG DyLight 549 (Vector Laboratories Cat. Number DI-1549) and methoxy-X04 (Tocris Cat. Number 4920) for 1 hour at RT. Finally, sections were stained for with anti-LC3 Alexa 488±anti-cleaved caspase 3 (Cell Signaling Technologies Cat. Number 13082 and 9602). Images were collected using a Nikon Al Rsi+ confocal microscope. Images were then processed with Imaris 7.7 (Bitplane).
Positions of microglia and positions and volumes of plaques within z-stacks were derived from analysis in Imaris, and microglia-plaque association was determined using automated scripts in Matlab. Briefly, each plaque in the z-stack was modeled as an idealized sphere with the same volume and center of mass. Microglia density within 15 μm of the plaque surface was determined by isolating the voxels of the image that fall within 15 μm of the edge of the idealized plaque. The number of microglia contained in these voxels was divided by the total volume of those voxels to obtain density for a single plaque. Densities of all plaques in a z-stack were averaged together, and the resulting values were averaged together for all z-stacks corresponding to a single animal.
To measure total plaque area, brain sections were stained with methoxy X04. Images were collected using a Nikon Eclipse 80i microscope. For quantitative analysis, images were converted to 8-bit greyscale and stitched using the “Stitching” plugin in ImageJ. Cortex (˜1.1 mm Bregma to 0.8 mm Bregma) and hippocampus (˜−1.7 Bregma to −2.4 Bregma) were determined by manual selection. […]

5XFAD mice = experiment: Dietary cyclocreatine in 5XFAD mice: confocal microscopy of brain; assay type: in vivo, mouse; conditions: cyclocreatine-treated 5XFAD mice vs untreated Trem2−/− 5XFAD mice
Description: as §3
Confocal microscopy analysis was performed as previously described (Wang et al., 2015). Briefly, mice were anesthetized with ketamine/xylazine and perfused with ice-cold PBS containing 1 U/ml of heparin. Brains were fixed in 4% PFA overnight at 4° C. rinsed in PBS and incubated overnight at 4° C. in 30% sucrose before freezing in a 2:1 mixture of 30% sucrose and optimal cutting temperature compound. […]

Trem2−/− BMDM = experiment: Viability of BMDM in 0.5% LCCM; assay type: cell-based, mouse; conditions: Trem2-deficient BMDMs, 40 hours in 0.5% LCCM
[6] = system: microglia from Trem2−/− 5XFAD mice; experiment: Immunoblots of microglia sorted ex vivo from cyclocreatine-treated mice; assay type: in vivo, mouse; conditions: microglia isolated ex vivo, cyclocreatine vs untreated
Description: as §3
Microglia were isolated from the indicated animals as previously described (Wang et al., 2015). CD45^+, CD11 b^+, F4/80^+ (Biolegend Cat. Number 103134, eBioscience Cat. Numbers 11-0112 and 17-4801) cells in the brain were fluorescence-activated cell-sorted (FACS) directly into RLT-plus lysis buffer for microarray or 2% FBS in PBS for TEM or immunoblot lysates. For microarray RNA extraction was performed using a RNeasy micro kit (QIAGEN). […]

[7] = cited from earlier work
[8] = Trem2−/− 5XFAD mice, cyclocreatine in drinking water from 10 weeks to 8 months
[9] = Trem2−/− 5XFAD mice, cyclocreatine vs untreated
[10] = cyclocreatine treated Trem2−/− 5XFAD mice

With “phosphocyclocreatine [cyclocreatine phosphate]” as the molecule, how does the “stability of the phosphorous-nitrogen (P N) bond” value [1] read?
The value was “more stable than that of phosphocreatine”.

Which results are given for tunicamycin?
Akt S473 phosphorylation (Trem2−/− BMDMs [2]): less; LC3II/LC3I ratios (Trem2−/− BMDMs [2]): greater

Which autophagy [3] does the source give for phosphocreatine here?
Its autophagy is “prevent”.

And the cell death [3]?
Its cell death is “prevent”.

What about the “metabolic activity / metabolic capacity” value [3] of the same molecule?
The value was “rescue”.

Which LC3II (Trem2−/− BMDMs [4]) does the source give for `CO/C1=C\C(C)=C\[C@@H](C)[C@@H](O)[C@@H](C)C/C(C)=C/C=C/[C@H](OC)[C@@H]([C@@H](C)[C@@H](O)[C@H](C)[C@@]2(O)C[C@@H](O)[C@H](C)[C@@H](C(C)C)O2)OC1=O` [bafilomycin, Bafilomycin A1] here?
Its LC3II is “greatly increased”.

What does the source list for `NC(=O)c1ccc[n+]([C@@H]2O[C@H](COP(=O)([O-])O)[C@@H](O)[C@H]2O)c1` [NMN, nicotinamide mononucleotide]?
autophagy [3]: prevent; cell death [3]: prevent; metabolic activity / metabolic capacity [3]: rescue

Which “autophagy (LC3 immunoblot)” value (Trem2−/− BMDMs [5]) does the source give for `NC1=NCCN1CC(=O)O` [cyclocreatine, 1-carboxymethyl-2-iminoimidazolidine] here?
Its value is “less autophagy”.

And the mTOR signaling (Trem2−/− BMDMs [5])?
The mTOR signaling was “increased mTOR signaling”.

What about the ECAR (Trem2-deficient BMDMs) of the same molecule?
The ECAR was “improved”.

What about the “phosphorylation by creatine kinase in the forward reaction” value (creatine kinase) of the same molecule?
Its value is “phosphorylated efficiently”.

What about the “engulfment of plaque particulates by microglia” value (Trem2−/− 5XFAD mice; 8 months of age) of the same molecule?
The value was “did not moderate”.

And the “number of LC3 puncta/cell” value (Trem2−/− 5XFAD mice; [8])?
Its value is “significantly decreased”.

And the “percentage of LC3+ microglia” value (Trem2−/− 5XFAD mice; [8])?
The value was “significantly decreased”.

What about the “percentage of cleaved caspase-3+ microglia” value (Trem2−/− 5XFAD mice; [8]) of the same molecule?
Its value is “significantly decreased”.

What about the “multivesicular/multilamellar structures in microglia (TEM)” value (Trem2−/− 5XFAD mice; Trem2−/− 5XFAD mice, cyclocreatine in drinking water from 10 weeks to 8 months, vs untreated) of the same molecule?
Its value is “significantly fewer”.

What about the “clustering of microglia around plaques” value (Trem2−/− 5XFAD mice; [9]) of the same molecule?
The value was “significantly increased”.

And the “number of microglia/high powered field (HPF) in plaque-bearing regions of the cortex” value (Trem2−/− 5XFAD mice; [9])?
Its value is “significantly increased”.

And the plaque-associated neurite dystrophy (Trem2−/− 5XFAD mice; [9])?
Its plaque-associated neurite dystrophy is “significantly reduced”.

And the plaque accumulation (Trem2−/− 5XFAD mice; cortex and hippocampus, 8 months of age)?
The plaque accumulation was “did not moderate”.

What about the “density of plaques (methoxy-X04 staining intensity)” value (Trem2−/− 5XFAD mice; [10]) of the same molecule?
The value was “resembled that of plaques in 5XFAD mice”.

What about the plaque shape complexity (Trem2−/− 5XFAD mice; [10]) of the same molecule?
The plaque shape complexity was “not significantly altered”.

What about the “Spp1+ microglia” value (Trem2−/− 5XFAD mice; cyclocreatine-treated Trem2−/− 5XFAD mice vs untreated Trem2−/− 5XFAD mice) of the same molecule?
The value was “significantly more”.

And the “Spp1+ microglia” value (5XFAD mice)?
The value was “significantly more”.

What about the autophagy [3] of the same molecule?
Its autophagy is “prevent”.

And the cell death [3]?
Its cell death is “prevent”.

What about the “metabolic activity / metabolic capacity” value [3] of the same molecule?
Its value is “rescue”.

And the viability (Trem2−/− BMDM)?
The viability was “increased”.

And the “autophagy (LC3II/LC3I ratio)” value [6]?
Its value is “significantly limited”.

And the “microglial mTOR signaling” value [6]?
Its value is “restored”.

And the “accumulation in the brain” value ([7]; mouse brain in vivo)?
Its value is “can accumulate and function as a phosphagen in the mouse brain”.

What about the transport across membranes ([7]; mouse, in vivo) of the same molecule?
The transport across membranes was “passively transported across membranes”.
